Data: ChEMBL document CHEMBL5356969, “Functional evaluation of an electrophilic focused library to identify a covalent inhibitor against intrinsically disordered circadian clock transcription factors” (Bioorg Med Chem Lett, 2024)
Active and inactive are the calls of the source. The calls are words filed in the database; no cut-off is given here.

Experiments:
[1] = Inhibition of N-terminal (His)6/thioredoxin-tagged recombinant human BMAL1/CLOCK heterodimer expressed in Escherichia coli interaction with 5'-FAM-labeled Per2 E-box DNA (unknown origin) assessed as reduction in fluorescence intensity at 500 uM incubated for 40 mins by FP assay
[2] = Inhibition of N-terminal (His)6/thioredoxin-tagged recombinant human BMAL1/CLOCK heterodimer expressed in Escherichia coli interaction with FAM-labeled E-box DNA (unknown origin) assessed as reduction in fluorescence intensity upto 1000 uM
[3] = Thiol reactivity of compound assessed as second order rate constant at 200 uM in presence of TCEP by Ellman's method; format: ADME
[4] = Inhibition of N-terminal (His)6/thioredoxin-tagged recombinant human BMAL1/CLOCK heterodimer expressed in Escherichia coli interaction with 5'-FAM-labeled Per2 E-box DNA (unknown origin) assessed as reduction in fluorescence intensity incubated for 40 mins by FP assay
[5] = Inhibition of N-terminal (His)6/thioredoxin-tagged recombinant human BMAL1/CLOCK heterodimer expressed in Escherichia coli interaction with FAM-labeled E-box DNA (unknown origin) assessed as reduction in fluorescence intensity at 50 uM pretreated with iodoacetamide followed by compound treatment
[6] = Inhibition of N-terminal (His)6/thioredoxin-tagged recombinant human BMAL1/CLOCK heterodimer expressed in Escherichia coli interaction with 5'-FAM-labeled Per2 E-box DNA (unknown origin) assessed as reduction in fluorescence intensity at 500 uM incubated for 40 mins by FP assay relative to control

Q: For `O=C(CCl)NCc1ccccc1Cl`, which inhibition [1] is on record?
A: inactive

Q: Which inhibition [1] does the source give for `C=CC(=O)NCc1ccc(Cl)cc1` here?
A: inactive

Q: With `C=CC(=O)Nc1cccc2ccccc12` as the compound, how does the inhibition [1] read?
A: inactive

Q: Which inhibition [2] does the source give for `O=C(CCl)Nc1ccc(C(F)(F)F)cc1` here?
A: inactive

Q: What about the K [3] of the same compound?
A: 4.47 10^-5/M/s

Q: Which inhibition [1] does the source give for `O=C(CCl)Nc1ccccc1` here?
A: inactive

Q: For `C=CC(=O)Nc1cc(C(F)(F)F)cc(C(F)(F)F)c1`, which IC50 [4] is on record?
A: 500 µM

Q: And the K [3]?
A: 0.38 10^-5/M/s

Q: Which K [3] does the source give for `O=C(CCl)Nc1cccc(C(F)(F)F)c1` here?
A: 3.18 10^-5/M/s

Q: With `O=C(CCl)Nc1cccc2ccccc12` as the compound, how does the inhibition [1] read?
A: inactive

Q: For `C=CC(=O)Nc1ccccc1`, which inhibition [1] is on record?
A: inactive

Q: For `O=C(CCl)NC1CCCCC1`, which inhibition [1] is on record?
A: inactive

Q: Which inhibition [1] does the source give for `O=C(CCl)NCc1ccc(Cl)cc1` here?
A: inactive

Q: For `C=CC(=O)NCc1ccccc1Cl`, which inhibition [1] is on record?
A: inactive

Q: What does the source list for `NC(=O)CI` [IODOACETAMIDE]?
A: inhibition [2]: inactive; K [3]: 15.9 10^-5/M/s

Q: For `CC(C)NC(=O)CCl`, which inhibition [1] is on record?
A: inactive

Q: For `O=C1C=CC(=O)c2nccnc21`, which inhibition [5] is on record?
A: inactive

Q: For `O=C(CCl)Nc1cc(C(F)(F)F)cc(C(F)(F)F)c1`, which inhibition [6] is on record?
A: 60%

Q: What about the inhibition [2] of the same compound?
A: Active

Q: What about the IC50 [4] of the same compound?
A: 150 µM

Q: What about the K [3] of the same compound?
A: 4.61 10^-5/M/s

Q: And the inhibition [5]?
A: inactive

Q: With `C=CC(=O)NC1CCCCC1` as the compound, how does the inhibition [1] read?
A: inactive

Q: Which K [3] does the source give for `O=C(CCl)Nc1ccccc1C(F)(F)F` here?
A: 0.63 10^-5/M/s

Q: For `C=CC(=O)NC(C)C`, which inhibition [1] is on record?
A: inactive
